Legend:
sugar beet = assay: Test B pre/postemergence sugar beet; format: in vivo, Beta vulgaris
Summary of the method: (§1)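 Response is a visual 0-to-10 score relative to untreated plants, where 0 means no effect and 10 means complete control, taken twelve to sixteen days after application. Treatments went onto soil at planting and onto foliage of 1- to 4-leaf plants, using a surfactant-containing non-phytotoxic solvent.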

morningglory = assay: Test B pre/postemergence morningglory; format: in vivo, Ipomoea hederacea
Summary of the method: as §1

crabgrass = assay: Test B pre/postemergence crabgrass; format: in vivo, Digitaria sanguinalis
Summary of the method: as §1

rape = assay: Test B pre/postemergence rape; format: in vivo, Brassica napus
Summary of the method: as §1

soybean = assay: Test B pre/postemergence soybean; format: in vivo, Glycine max
Summary of the method: as §1

surinam grass = assay: Test B pre/postemergence surinam grass; format: in vivo, Brachiaria decumbens
Summary of the method: as §1

velvetleaf = assay: Test B pre/postemergence velvetleaf; format: in vivo, Abutilon theophrasti
Summary of the method: as §1

giant foxtail = assay: Test B pre/postemergence giant foxtail; format: in vivo, Setaria faberii
Summary of the method: as §1

cocklebur = assay: Test B pre/postemergence cocklebur; format: in vivo, Xanthium strumarium
Summary of the method: as §1

blackgrass = assay: Test B pre/postemergence blackgrass; format: in vivo, Alopecurus myosuroides
Summary of the method: as §1

pigweed = assay: Test B pre/postemergence pigweed; format: in vivo, Amaranthus retroflexus
Summary of the method: as §1

bedstraw = assay: Test B pre/postemergence bedstraw; format: in vivo, Galium aparine
Summary of the method: as §1

wild oat = assay: Test B pre/postemergence wild oat; format: in vivo, Avena fatua
Summary of the method: as §1

wheat = assay: Test B pre/postemergence wheat; format: in vivo, Triticum aestivum
Summary of the method: as §1

purple nutsedge = assay: Test B pre/postemergence purple nutsedge; format: in vivo, Cyperus rotundus
Summary of the method: as §1

corn = assay: Test B pre/postemergence corn; format: in vivo, Zea mays
Summary of the method: as §1

[1] = Postemergence, Rate 62 g/ha, scale of 0 to 10, 0 is no effect, 10 is complete control
[2] = Postemergence, Rate 125 g/ha, scale 0 to 10, 0 is no effect, 10 is complete control
[3] = Postemergence, Rate 500 g/ha, scale 0 to 10, 0 is no effect, 10 is complete control
[4] = Preemergence, Rate 62 g/ha, scale of 0 to 10 where 0 is no effect and 10 is complete control
[5] = Preemergence, Rate 125 g/ha, scale 0 to 10, 0 is no effect, 10 is complete control
[6] = Preemergence, Rate 500 g/ha, scale of 0 to 10 where 0 is no effect and 10 is complete control
[7] = Rate 250 g/ha, Postemergence, scale of 0 to 10 where 0 is no effect and 10 is complete control

CC(C)N(C(=O)n1oc(=O)n(CCCC(F)(F)F)c1=O)c1ccc(F)cc1F [Compound 526]
Sugarbeets plant response rating (sugar beet; [1]): 0 | Sugarbeets plant response rating (sugar beet; [2]): 0 | Plant response rating, Sugarbeets (sugar beet; [3]): 0 | Plant response rating, Sugarbeets (sugar beet; [4]): 4 | Sugarbeets plant response rating (sugar beet; [5]): 6 | Sugarbeets plant response rating (0 to 10 scale) (sugar beet; Preemergence, Rate 250 g/ha): 8 | Sugarbeets plant response rating (sugar beet; [6]): 8 | Plant response rating, Sugarbeets (sugar beet; [7]): 0 | Morningglory plant response rating (morningglory; [1]): 6 | Morningglory plant response rating (morningglory; [2]): 6 | Plant response rating, Morningglory (morningglory; [3]): 7 | Plant response rating, Morningglory (morningglory; [4]): 0 | Morningglory plant response rating (morningglory; [5]): 0 | Morningglory plant response rating (0 to 10 scale) (morningglory; Preemergence, Rate 250 g/ha): 0 | Morningglory plant response rating (morningglory; [6]): 2 | Plant response rating, Morningglory (morningglory; [7]): 6 | Crabgrass plant response rating (crabgrass; [1]): 6 | Crabgrass plant response rating (crabgrass; [2]): 9 | Plant response rating, Crabgrass (crabgrass; [3]): 10 | Plant response rating, Crabgrass (crabgrass; [4]): 9 | Crabgrass plant response rating (crabgrass; [5]): 10 | Crabgrass plant response rating (0 to 10 scale) (crabgrass; Preemergence, Rate 250 g/ha): 10 | Crabgrass plant response rating (crabgrass; [6]): 10 | Plant response rating, Crabgrass (crabgrass; [7]): 9 | Rape plant response rating (rape; [1]): 0 | Rape plant response rating (rape; [2]): 4 | Plant response rating, Rape (rape; [3]): 4 | Plant response rating, Rape (rape; [4]): 4 | Rape plant response rating (rape; [5]): 4 | Rape plant response rating (0 to 10 scale) (rape; Preemergence, Rate 250 g/ha): 9 | Soybean plant response rating (soybean; [1]): 2 | Soybean plant response rating (soybean; [2]): 3 | Plant response rating, Soybean (soybean; [3]): 3 | Plant response rating, Soybean (soybean; [4]): 0 | Soybean plant response rating (soybean; [5]): 0 | Soybean plant response rating (0 to 10 scale) (soybean; Preemergence, Rate 250 g/ha): 0 | Soybean plant response rating (soybean; [6]): 0 | Plant response rating, Soybean (soybean; [7]): 3 | B. signalgrass plant response rating (surinam grass; [1]): 0 | B. signalgrass plant response rating (surinam grass; [2]): 2 | Plant response rating, B. signalgrass (surinam grass; [3]): 6 | Plant response rating, B. signalgrass (surinam grass; [4]): 8 | B. signalgrass plant response rating (surinam grass; [5]): 9 | B. signalgrass plant response rating (0 to 10 scale, 0 is no effect, 10 is complete control) (surinam grass; Preemergence, Rate 250 g/ha): 9 | Plant response rating, B. signalgrass (surinam grass; [7]): 4 | Velvetleaf plant response rating (velvetleaf; [1]): 4 | Velvetleaf plant response rating (velvetleaf; [2]): 4 | Plant response rating, Velvetleaf (velvetleaf; [3]): 8 | Plant response rating, Velvetleaf (velvetleaf; [4]): 0 | Velvetleaf plant response rating (velvetleaf; [5]): 2 | Velvetleaf plant response rating (0 to 10 scale) (velvetleaf; Preemergence, Rate 250 g/ha): 2 | Velvetleaf plant response rating (velvetleaf; [6]): 3 | Plant response rating, Velvetleaf (velvetleaf; [7]): 7 | Giant foxtail plant response rating (giant foxtail; [1]): 3 | Giant foxtail plant response rating (giant foxtail; [2]): 3 | Plant response rating, Giant foxtail (giant foxtail; [3]): 8 | Plant response rating, Giant foxtail (giant foxtail; [4]): 9 | Giant foxtail plant response rating (giant foxtail; [5]): 10 | Giant foxtail plant response rating (0 to 10 scale) (giant foxtail; Preemergence, Rate 250 g/ha): 10 | Giant foxtail plant response rating (giant foxtail; [6]): 10 | Plant response rating, Giant foxtail (giant foxtail; [7]): 7 | Cocklebur plant response rating (cocklebur; [1]): 0 | Cocklebur plant response rating (cocklebur; [2]): 0 | Plant response rating, Cocklebur (cocklebur; [3]): 2 | Plant response rating, Cocklebur (cocklebur; [4]): 0 | Cocklebur plant response rating (cocklebur; [5]): 0 | Cocklebur plant response rating (0 to 10 scale) (cocklebur; Preemergence, Rate 250 g/ha): 0 | Cocklebur plant response rating (cocklebur; [6]): 0 | Plant response rating, Cocklebur (cocklebur; [7]): 0 | Blackgrass plant response rating (blackgrass; [1]): 3 | Blackgrass plant response rating (blackgrass; [2]): 6 | Plant response rating, Blackgrass (blackgrass; [3]): 7 | Plant response rating, Blackgrass (blackgrass; [4]): 7 | Blackgrass plant response rating (blackgrass; [5]): 9 | Blackgrass plant response rating (0 to 10 scale) (blackgrass; Preemergence, Rate 250 g/ha): 10 | Plant response rating, Blackgrass (blackgrass; [7]): 9 | Redroot pigweed plant response rating (pigweed; [1]): 0 | Redroot pigweed plant response rating (pigweed; [2]): 0 | Plant response rating, Redroot pigweed (pigweed; [3]): 4 | Plant response rating, Redroot pigweed (pigweed; [4]): 4 | Redroot pigweed plant response rating (pigweed; [5]): 4 | Redroot pigweed plant response rating (0 to 10 scale) (pigweed; Preemergence, Rate 250 g/ha): 4 | Plant response rating, Redroot pigweed (pigweed; [7]): 2 | Plant response rating, Bedstraw (bedstraw; [3]): 9 | Plant response rating, Bedstraw (bedstraw; [4]): 0 | Bedstraw plant response rating (bedstraw; [5]): 0 | Bedstraw plant response rating (0 to 10 scale) (bedstraw; Preemergence, Rate 250 g/ha): 7 | Wild oats plant response rating (wild oat; [1]): 0 | Wild oats plant response rating (wild oat; [2]): 0 | Plant response rating, Wild oats (wild oat; [3]): 0 | Plant response rating, Wild oats (wild oat; [4]): 7 | Wild oats plant response rating (wild oat; [5]): 9 | Wild oats plant response rating (0 to 10 scale) (wild oat; Preemergence, Rate 250 g/ha): 9 | Plant response rating, Wild oats (wild oat; [7]): 0 | Wheat plant response rating (wheat; [1]): 0 | Wheat plant response rating (wheat; [2]): 0 | Plant response rating, Wheat (wheat; [3]): 0 | Plant response rating, Wheat (wheat; [4]): 0 | Wheat plant response rating (wheat; [5]): 0 | Wheat plant response rating (0 to 10 scale) (wheat; Preemergence, Rate 250 g/ha): 8 | Plant response rating, Wheat (wheat; [7]): 0 | Nutsedge plant response rating (purple nutsedge; [1]): 0 | Nutsedge plant response rating (purple nutsedge; [2]): 0 | Plant response rating, Nutsedge (purple nutsedge; [3]): 2 | Plant response rating, Nutsedge (purple nutsedge; [4]): 0 | Nutsedge plant response rating (purple nutsedge; [5]): 0 | Nutsedge plant response rating (0 to 10 scale) (purple nutsedge; Preemergence, Rate 250 g/ha): 0 | Nutsedge plant response rating (purple nutsedge; [6]): 0 | Plant response rating, Nutsedge (purple nutsedge; [7]): 0 | Corn plant response rating (corn; [1]): 0 | Corn plant response rating (corn; [2]): 2 | Plant response rating, Corn (corn; [3]): 2 | Plant response rating, Corn (corn; [4]): 0 | Corn plant response rating (corn; [5]): 0 | Corn plant response rating (0 to 10 scale) (corn; Preemergence, Rate 250 g/ha): 0 | Corn plant response rating (corn; [6]): 2 | Plant response rating, Corn (corn; [7]): 2
